Assay results from PubChem BioAssay (NCI).
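1) Cells in 96-well plates. 2) Compound, 48 h, 5 concentrations. 3) Linear interpolation between surrounding doses. 4) Unreached endpoint = highest concentration. At the GI50, growth is halved. TGI: concentration producing complete growth inhibition.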

Key:
Assay in all cases: NCI-60 cell line screen, 48 h
UACC-62 melanoma = tested on: UACC-62 melanoma
SK-MEL-2 melanoma = tested on: SK-MEL-2 melanoma
KM12 colon = tested on: KM12 colon
T-47D breast = tested on: T-47D breast
HOP-92 NSCLC = tested on: HOP-92 NSCLC
SF-295 CNS = tested on: SF-295 CNS
OVCAR-3 ovarian = tested on: OVCAR-3 ovarian
TK-10 renal = tested on: TK-10 renal
HCC-2998 colon = tested on: HCC-2998 colon
NCI/ADR-RES ovarian = tested on: NCI/ADR-RES ovarian
MDA-MB-435 = tested on: MDA-MB-435
SK-MEL-28 melanoma = tested on: SK-MEL-28 melanoma
NCI-H460 lung = tested on: NCI-H460 lung
HL-60(TB) leukemia = tested on: HL-60(TB) leukemia
IGROV1 ovarian = tested on: IGROV1 ovarian
MCF7 breast = tested on: MCF7 breast
U251 CNS = tested on: U251 CNS
NCI-H226 lung = tested on: NCI-H226 lung
HCT-116 colon = tested on: HCT-116 colon
SK-OV-3 ovarian = tested on: SK-OV-3 ovarian
UACC-257 melanoma = tested on: UACC-257 melanoma
PC-3 prostate = tested on: PC-3 prostate
MDA-MB-468 breast = tested on: MDA-MB-468 breast
HS 578T breast = tested on: HS 578T breast
SNB-75 CNS = tested on: SNB-75 CNS
MALME-3M melanoma = tested on: MALME-3M melanoma
OVCAR-5 ovarian = tested on: OVCAR-5 ovarian
MDA-MB-231 breast = tested on: MDA-MB-231 breast
DU-145 prostate = tested on: DU-145 prostate
NCI-H522 lung = tested on: NCI-H522 lung
HT29 colon = tested on: HT29 colon
RPMI-8226 leukemia = tested on: RPMI-8226 leukemia
UO-31 renal = tested on: UO-31 renal
A498 renal = tested on: A498 renal
RXF 393 renal = tested on: RXF 393 renal
NCI-H23 lung = tested on: NCI-H23 lung
CCRF-CEM leukemia = tested on: CCRF-CEM leukemia
A549 NSCLC = tested on: A549 NSCLC
OVCAR-4 ovarian = tested on: OVCAR-4 ovarian
HCT-15 colon = tested on: HCT-15 colon
M14 melanoma = tested on: M14 melanoma
SK-MEL-5 melanoma = tested on: SK-MEL-5 melanoma
SR leukemia = tested on: SR leukemia
LOX IMVI melanoma = tested on: LOX IMVI melanoma
SF-539 CNS = tested on: SF-539 CNS
786-0 renal = tested on: 786-0 renal
K-562 leukemia = tested on: K-562 leukemia
CAKI-1 renal = tested on: CAKI-1 renal
ACHN renal = tested on: ACHN renal
MOLT-4 leukemia = tested on: MOLT-4 leukemia
SNB-19 CNS = tested on: SNB-19 CNS
COLO 205 colon = tested on: COLO 205 colon
EKVX NSCLC = tested on: EKVX NSCLC
HOP-62 NSCLC = tested on: HOP-62 NSCLC
SF-268 CNS = tested on: SF-268 CNS
SW-620 colon = tested on: SW-620 colon
OVCAR-8 ovarian = tested on: OVCAR-8 ovarian
SN12C renal = tested on: SN12C renal
BT-549 breast = tested on: BT-549 breast

`CN1CCN(c2ccc(Nc3nc(NCCCNC(=O)C4CCCCC4)c4sccc4n3)cc2)CC1` showed a GI50 (UACC-62 melanoma) of 15.1 µM, a TGI (UACC-62 melanoma) of 28.6 µM and a GI50 (SK-MEL-2 melanoma) of 18.7 µM. It also gave a TGI (SK-MEL-2 melanoma) of 33.6 µM, a GI50 (KM12 colon) of 19.4 µM and a TGI (KM12 colon) of 44.9 µM. It also gave a GI50 (T-47D breast) of 11.4 µM, a TGI (T-47D breast) of 37.9 µM and a GI50 (HOP-92 NSCLC) of 10.6 µM. The TGI (HOP-92 NSCLC) was 34.3 µM, the GI50 (SF-295 CNS) was 12.9 µM and the TGI (SF-295 CNS) was 26.3 µM. The GI50 (OVCAR-3 ovarian) was 16.2 µM, the TGI (OVCAR-3 ovarian) was 33.5 µM and the GI50 (TK-10 renal) was 24.6 µM. For the same compound, the TGI (TK-10 renal) was 51.7 µM, the GI50 (HCC-2998 colon) was 13.8 µM and the TGI (HCC-2998 colon) was 26.9 µM. For the same compound, the GI50 (NCI/ADR-RES ovarian) was 21.1 µM, the TGI (NCI/ADR-RES ovarian) was 54.5 µM and the GI50 (MDA-MB-435) was 15.6 µM. For the same compound, the TGI (MDA-MB-435) was 30.8 µM, the GI50 (SK-MEL-28 melanoma) was 6.24 µM and the TGI (SK-MEL-28 melanoma) was 19.5 µM. The GI50 (NCI-H460 lung) was 14.6 µM, the TGI (NCI-H460 lung) was 30.8 µM and the GI50 (HL-60(TB) leukemia) was 4.55 µM. It also gave a TGI (HL-60(TB) leukemia) of 23.3 µM, a GI50 (IGROV1 ovarian) of 14 µM and a TGI (IGROV1 ovarian) of 30.8 µM. For the same compound, the GI50 (MCF7 breast) was 10 µM, the TGI (MCF7 breast) was 24 µM and the GI50 (U251 CNS) was 4.64 µM. It also gave a TGI (U251 CNS) of 19.9 µM, a GI50 (NCI-H226 lung) of 12.6 µM and a TGI (NCI-H226 lung) of 26.3 µM. It also gave a GI50 (HCT-116 colon) of 3.98 µM, a TGI (HCT-116 colon) of 18.5 µM and a GI50 (SK-OV-3 ovarian) of 23.4 µM. It also gave a TGI (SK-OV-3 ovarian) of 59.2 µM, a GI50 (UACC-257 melanoma) of 3.61 µM and a TGI (UACC-257 melanoma) of 14.9 µM. For the same compound, the GI50 (PC-3 prostate) was 12.4 µM, the TGI (PC-3 prostate) was 42.2 µM and the GI50 (MDA-MB-468 breast) was 2.96 µM. It also gave a TGI (MDA-MB-468 breast) of 17.2 µM, a GI50 (HS 578T breast) of 12.8 µM and a TGI (HS 578T breast) of 36.2 µM. The GI50 (SNB-75 CNS) was 11.2 µM, the TGI (SNB-75 CNS) was 24.7 µM and the GI50 (MALME-3M melanoma) was 7.31 µM. For the same compound, the TGI (MALME-3M melanoma) was 19.8 µM, the GI50 (OVCAR-5 ovarian) was 16.1 µM and the TGI (OVCAR-5 ovarian) was 34.6 µM. It also gave a GI50 (MDA-MB-231 breast) of 13.2 µM, a TGI (MDA-MB-231 breast) of 30.8 µM and a GI50 (DU-145 prostate) of 14.9 µM. The TGI (DU-145 prostate) was 30.5 µM, the GI50 (NCI-H522 lung) was 13 µM and the TGI (NCI-H522 lung) was 27 µM. It also gave a GI50 (HT29 colon) of 4.28 µM, a TGI (HT29 colon) of 17 µM and a GI50 (RPMI-8226 leukemia) of 3.92 µM. The TGI (RPMI-8226 leukemia) was 19.9 µM, the GI50 (UO-31 renal) was 11.9 µM and the TGI (UO-31 renal) was 24.6 µM. For the same compound, the GI50 (A498 renal) was 22 µM, the TGI (A498 renal) was 37.7 µM and the GI50 (RXF 393 renal) was 5.49 µM. For the same compound, the TGI (RXF 393 renal) was 20 µM, the GI50 (NCI-H23 lung) was 14.1 µM and the TGI (NCI-H23 lung) was 29.1 µM. For the same compound, the GI50 (CCRF-CEM leukemia) was 3.77 µM, the TGI (CCRF-CEM leukemia) was 37.6 µM and the GI50 (A549 NSCLC) was 20.7 µM. It also gave a TGI (A549 NSCLC) of 80.8 µM, a GI50 (OVCAR-4 ovarian) of 15.7 µM and a TGI (OVCAR-4 ovarian) of 57.7 µM. It also gave a GI50 (HCT-15 colon) of 5.77 µM, a TGI (HCT-15 colon) of 25.6 µM and a GI50 (M14 melanoma) of 4.23 µM. For the same compound, the TGI (M14 melanoma) was 16 µM, the GI50 (SK-MEL-5 melanoma) was 8.82 µM and the TGI (SK-MEL-5 melanoma) was 21 µM. The GI50 (SR leukemia) was 2.13 µM, the TGI (SR leukemia) was 6.3 µM and the GI50 (LOX IMVI melanoma) was 10.7 µM. The TGI (LOX IMVI melanoma) was 23.1 µM, the GI50 (SF-539 CNS) was 3.15 µM and the TGI (SF-539 CNS) was 12.8 µM. It also gave a GI50 (786-0 renal) of 10.8 µM, a TGI (786-0 renal) of 26.4 µM and a GI50 (K-562 leukemia) of 2.72 µM. The TGI (K-562 leukemia) was 47 µM, the GI50 (CAKI-1 renal) was 14.5 µM and the TGI (CAKI-1 renal) was 30.5 µM. The GI50 (ACHN renal) was 15.6 µM, the TGI (ACHN renal) was 35.1 µM and the GI50 (MOLT-4 leukemia) was 3.19 µM. For the same compound, the TGI (MOLT-4 leukemia) was 20.8 µM, the GI50 (SNB-19 CNS) was 22.1 µM and the TGI (SNB-19 CNS) was 47.1 µM. For the same compound, the GI50 (COLO 205 colon) was 17.7 µM, the TGI (COLO 205 colon) was 38.2 µM and the GI50 (EKVX NSCLC) was 15.8 µM. It also gave a TGI (EKVX NSCLC) of 33.9 µM, a GI50 (HOP-62 NSCLC) of 18.2 µM and a TGI (HOP-62 NSCLC) of 36.3 µM. It also gave a GI50 (SF-268 CNS) of 10.4 µM, a TGI (SF-268 CNS) of 40.7 µM and a GI50 (SW-620 colon) of 17.3 µM. It also gave a TGI (SW-620 colon) of 36.4 µM, a GI50 (OVCAR-8 ovarian) of 16 µM and a TGI (OVCAR-8 ovarian) of 36.7 µM. For the same compound, the GI50 (SN12C renal) was 14.2 µM, the TGI (SN12C renal) was 29.4 µM and the GI50 (BT-549 breast) was 13.3 µM. For the same compound, the TGI (BT-549 breast) was 27.3 µM.
